# Laboratory results from patent publication US6225321A (priority 1997, dated 2001).
# “And” between values parts separate entries of the source, which are not always exact repeats. Equal entries are not always repeated. Where two headings read alike, the source gives them in different places.
# Key:
# [1] = Half-life / conversion of dinalbuphine sebacoyl ester in rabbit blood; format: in vitro ADME; conditions: for Elimination half-life: n = 3, mean ± S.E.
# Description: II. For Rabbit Experiments
# (a) Dinalbuphine ester sebacoyl ester was dissolved in acetonitrile, the concentration was 5.2 mg/ml.
# (b) 150 ml of whole blood collected from rats given dinalbuphine sebacoyl ester, and anticoagulant was added.
# [2] = Half-life / conversion of dinalbuphine sebacoyl ester in dog blood; format: in vitro ADME; conditions: for Elimination half-life: n = 3, mean ± S.E.
# Description: (a) Dinalbuphine sebacoyl ester was dissolved in acetonitrile, the concentration was 12.5 mg/ml.
# (b) 200 ml of whole blood collected from rats given dinalbuphine sebacoyl ester, and anticoagulant was added.
# [3] = Half-life / conversion of dinalbuphine sebacoyl ester in human blood; format: in vitro ADME; conditions: for Elimination half-life: n = 3, mean ± S.E.
# Description: IV. For Human Experiments
# (a) Dinalbuphine sebacoyl ester was dissolved in acetonitrile, the concentration was 10 mg/ml.
# (b) 250 ml of whole blood collected from rats given dinalbuphine sebacoyl ester, and anticoagulant was added.
# Sprague Dawley rats = experiment: Analgesic effect, cold ethanol bath tail flick test, intramuscular, rats; format: in vivo, rat
# Description: Sprague Dawley rats(175 to 225 g) were used. Each group consisted of 6 rats and each rats was injected once intramuscularly on the rear leg. […]
# The dose for each rat was 25 micromole per kg, intramuscularly.
# In the experiment, a circulating cold ethanol bath with a temperature maintained at -20° C. was set up. After dosing, the rat tail(1/3 from the tip) was immersed in the bath. The latency for the rat to flick its tail from the bath was measured to be the nociceptive threshold. The effect of various opium alkaloid preparations can be determined with this test.
# The nociceptive effect can be calculated as follows: [formula]
# 35, 25, 15 minutes before dosing, Male Sprague Dawley rat(175-225 g) was tested to measure the basic response latency. The time to top the experiment was set at 40 seconds to prevent the tail from cold sore. No cold sore were found in 40 sec. Five minutes after the drug was given to the rat, the flick test was performed every 10 minutes or more. […]
# (c) Dinalbuphine sebacoyl ester, dose was 7.8125 μ/kg, 31.25 μM/kg, 125 μM/kg.
# (d) 50 mg/ml dinalbuphine sebacoyl ester parenteral dosage forms, dinalbuphine sebacoyl ester was prepared in sesame oil.
# [4] = Pharmacokinetic study of long acting preparation in Beagle dogs; format: in vivo, Beagle dog; conditions: for CL/F: read-out: CLt (converted); for Vd/F: read-out: Vss
# Description: Six Beagle dogs were used. Five Beagle dogs were intramuscularly injected with 30 mg/kg long acting sebacoyl dinalbuphine ester parenteral administration respectively, and another one was injection with 100 mg/kg long acting sebacoyl dinalbuphine ester oily parenteral administration. Blood samples were collected through the vein in front limb of dogs at 1, 2, 6, 24, 30, 48, 54, 72, 78, 96, 102, 120, 168, 192 hours. […] Relationship between time and concentration was analyzed by PCNONLIN computer program. Two compartment model and pharmacokinetic parameters were calculated to depicted absorption, distribution, metabolism, and excretion of drugs in dogs.
# human body = experiment: Analgesic duration of sebacoyl dinalbuphine calculated for the human body; format: in vivo; conditions: 125 μM/23 kg
# Description: Therefore, the analgesic effect could be calculated on 4-5 days at 125 μM/23 kg to human body for sebacoyl dinalbuphine.
# Besides, such parenteral volume was not ideal for a single dose. However, this invention made a development. By diluting a single dose of sebacoyl dinalbuphine in 7.15 ml sesame oil form, parenteral administration could give the analgesic effect maintained 4 to 5 days. In other words, the analgesic effect was extended […] for a single dose of intramuscularly injected sebacoyl dinalbuphine at only 7 ml oil vehicle.
# [5] = Table 7, Dog 2, Dose 24.3 mg/kg
# [6] = Table 7, Dog 2, Dose 81.0 mg/kg
# [7] = dog, plasma, im, 24.3 mg/kg, Table 7, Dog 2, Dose 24.3 mg/kg
# [8] = dog, plasma, im, 30 mg/kg, Mean of 5 dogs, 30 mg/kg i.m.
# [9] = dog, plasma, im, 81 mg/kg, Table 7, Dog 2, Dose 81.0 mg/kg
# [10] = individual Dog 1 to Dog 5, lines in this order, 30 mg/kg i.m., listed as SDN, 30 mg/kg
structure (smiles),measurement,setting,value
O=C(CCCCCCCCC(=O)Oc1ccc2c3c1O[C@H]1[C@@H](O)CC[C@@]4(O)[C@@H](C2)N(CC2CCC2)CC[C@]314)Oc1ccc2c3c1O[C@H]1[C@@H](O)CC[C@@]4(O)[C@@H](C2)N(CC2CCC2)CC[C@]314 [sebacoyl dinalbuphine ester],Elimination half-life,[1]; rabbit plasma,0.116 ± 0.0005 h
same,Elimination half-life,[1]; rabbit red blood cell,0.437 ± 0.08 h
same,Elimination half-life,[1]; rabbit whole blood,0.248 ± 0.0217 h
same,converted time of 90% into Nalbuphine,[1]; rabbits,25 min
same,half life,"[1]; rabbits, HPLC",7.0 min
same,Elimination half-life,[2]; dog plasma,0.463 ± 0.0083 h
same,Elimination half-life,[2]; dog red blood cell,0.557 ± 0.0233 h
same,Elimination half-life,[2]; dog whole blood,0.508 ± 0.013 h
same,converted time of 90% into Nalbuphine,[2]; dogs,95 min
same,half life,"[2]; dogs, HPLC",0.463 h
same,Elimination half-life,[3]; human plasma,9.0 ± 0.4 min
same,Elimination half-life,[3]; human red blood cell,7.7 ± 0.4 min
same,Elimination half-life,[3]; human whole blood,8.8 ± 0.4 min
same,converted time of 90% into Nalbuphine,[3]; humans,30 min
same,half life,"[3]; humans, HPLC",9.0 min
same,dose dependence of analgesic effect,"Sprague Dawley rats; FIG. 9, rats, intramuscular, 7.8125, 31.25, 125 μM/kg",proportional to the dose administered
same,time to which 50% analgesic effect was extended,"Sprague Dawley rats; FIG. 10, intramuscular, 125 μM/kg",88 h
same,analgesic effect relative to Nalbuphine hydrochloride,Sprague Dawley rats; intramuscular,8.8 times
same,duration of analgesic effect,"Sprague Dawley rats; rats, intramuscular, dose below 125 μM/kg",4 to 5 days
same,A,"[4]; Mean of 5 dogs, 30 mg/kg i.m.",15.0 µg/mL
same,AUMC,"[4]; Mean of 5 dogs, 30 mg/kg i.m.",983.2 h^2 μg/ml
same,Abs. time,"[4]; Mean of 5 dogs, 30 mg/kg i.m.",92.6 h
same,B,"[4]; Mean of 5 dogs, 30 mg/kg i.m.",0.32 µg/mL
same,Vc,"[4]; Mean of 5 dogs, 30 mg/kg i.m.",14.84 L/kg
same,k12,"[4]; Mean of 5 dogs, 30 mg/kg i.m.",8.51 h⁻¹
same,k21,"[4]; Mean of 5 dogs, 30 mg/kg i.m.",0.28 h⁻¹
same,ko,"[4]; Mean of 5 dogs, 30 mg/kg i.m.",180.6 µg/kg/h
same,α,"[4]; Mean of 5 dogs, 30 mg/kg i.m.",9.98 h⁻¹
same,A,[4]; [5],14.1 µg/mL
same,AUC/D,[4]; [5],0.478 kg·h/mL
same,AUMC,[4]; [5],915 h^2 ng/ml
same,Abs. time,[4]; [5],95.6 h
same,B,[4]; [5],0.22 µg/mL
same,Vc,[4]; [5],10.21 L/kg
same,k12,[4]; [5],5.53 h⁻¹
same,k21,[4]; [5],0.13 h⁻¹
same,ko,[4]; [5],149.9 µg/kg/h
same,α,[4]; [5],6.85 h⁻¹
same,A,[4]; [6],59.0 µg/mL
same,AUC/D,[4]; [6],0.488 kg·h/mL
same,AUMC,[4]; [6],5026 h^2 ng/ml
same,Abs. time,[4]; [6],168.0 h
same,B,[4]; [6],0.51 µg/mL
same,Vc,[4]; [6],10.21 L/kg
same,k12,[4]; [6],8.99 h⁻¹
same,k21,[4]; [6],0.11 h⁻¹
same,ko,[4]; [6],354.2 µg/kg/h
same,α,[4]; [6],10.73 h⁻¹
same,AUC,[4]; [7],11900 ng·h/mL
same,CL/F,[4]; [7],1.21 mL/h/kg
same,bioavailability,"[4]; dog, plasma, im, 24.3 mg/kg, Table 7, Dog 2, Dose 24.3 mg/kg, read-out: F",59%
same,MRT,"[4]; dog, plasma, im, 24.3 mg/kg, Table 7, Dog 2, Dose 24.3 mg/kg, read-out: MRT",78.8 h
same,Vd/F,[4]; [7],450 L/kg
same,k el,"[4]; dog, plasma, im, 24.3 mg/kg, Table 7, Dog 2, Dose 24.3 mg/kg, read-out: k10 (converted)",0.000336 s⁻¹
same,half-life,"[4]; dog, plasma, im, 24.3 mg/kg, Table 7, Dog 2, Dose 24.3 mg/kg, read-out: t1/2,α (converted)",0.1 h
same,half-life,"[4]; dog, plasma, im, 24.3 mg/kg, Table 7, Dog 2, Dose 24.3 mg/kg, read-out: t1/2,β (converted)",30.6 h
same,k el,"[4]; dog, plasma, im, 24.3 mg/kg, Table 7, Dog 2, Dose 24.3 mg/kg, read-out: β (converted)",6.39e-06 s⁻¹
same,AUC,[4]; [8],13600 ng·h/mL
same,CL/F,[4]; [8],1.22 mL/h/kg
same,Cmax,"[4]; dog, plasma, im, 30 mg/kg, Mean of 5 dogs, 30 mg/kg i.m., read-out: Cmax",149 ng/mL
same,bioavailability,"[4]; dog, plasma, im, 30 mg/kg, Mean of 5 dogs, 30 mg/kg i.m., read-out: F",63.1%
same,MRT,"[4]; dog, plasma, im, 30 mg/kg, Mean of 5 dogs, 30 mg/kg i.m., read-out: MRT",73.2 h
same,Vd/F,[4]; [8],574 L/kg
same,k el,"[4]; dog, plasma, im, 30 mg/kg, Mean of 5 dogs, 30 mg/kg i.m., read-out: k10 (converted)",0.000339 s⁻¹
same,half-life,"[4]; dog, plasma, im, 30 mg/kg, Mean of 5 dogs, 30 mg/kg i.m., read-out: t1/2,α (converted)",0.09 h
same,half-life,"[4]; dog, plasma, im, 30 mg/kg, Mean of 5 dogs, 30 mg/kg i.m., read-out: t1/2,β (converted)",27.7 h
same,k el,"[4]; dog, plasma, im, 30 mg/kg, Mean of 5 dogs, 30 mg/kg i.m., read-out: β (converted)",8.33e-06 s⁻¹
same,AUC,"[4]; dog, plasma, im, 30 mg/kg, individual Dog 1 to Dog 5, lines in this order, 30 mg/kg i.m.",9730 ng·h/mL
same,MRT,"[4]; dog, plasma, im, 30 mg/kg, individual Dog 1 to Dog 5, lines in this order, 30 mg/kg i.m., read-out: MRT",84.3 h
same,AUC,[4]; [9],36200 ng·h/mL
same,CL/F,[4]; [9],1.64 mL/h/kg
same,Cmax,"[4]; dog, plasma, im, 81 mg/kg, Table 7, Dog 2, Dose 81.0 mg/kg, read-out: Cmax",204 ng/mL
same,bioavailability,"[4]; dog, plasma, im, 81 mg/kg, Table 7, Dog 2, Dose 81.0 mg/kg, read-out: F",73.4%
same,MRT,"[4]; dog, plasma, im, 81 mg/kg, Table 7, Dog 2, Dose 81.0 mg/kg, read-out: MRT",127 h
same,Vd/F,[4]; [9],861 L/kg
same,k el,"[4]; dog, plasma, im, 81 mg/kg, Table 7, Dog 2, Dose 81.0 mg/kg, read-out: k10 (converted)",0.000456 s⁻¹
same,half-life,"[4]; dog, plasma, im, 81 mg/kg, Table 7, Dog 2, Dose 81.0 mg/kg, read-out: t1/2,α (converted)",0.07 h
same,half-life,"[4]; dog, plasma, im, 81 mg/kg, Table 7, Dog 2, Dose 81.0 mg/kg, read-out: t1/2,β (converted)",41.9 h
same,k el,"[4]; dog, plasma, im, 81 mg/kg, Table 7, Dog 2, Dose 81.0 mg/kg, read-out: β (converted)",4.72e-06 s⁻¹
same,bioavailability,"[4]; dog, plasma, im, Beagle dogs, intramuscular, read-out: bioavailability",~63%
same,half-life,"[4]; dog, plasma, im, Beagle dogs, intramuscular, read-out: half life for excretion (converted)",~30 h
same,A,[4]; [10],20.9 μg/ml and 14.1 μg/ml (2×) and 9.5 μg/ml and 16.5 μg/ml
same,AUMC,[4]; [10],934.4 h^2 μg/ml and 915.0 h^2 μg/ml and 886.2 h^2 μg/ml and 1217.4 h^2 μg/ml and 1063.0 h^2 μg/ml
same,Abs. time,[4]; [10],164.5 h and 95.6 h (2×) and 49.3 h and 58.0 h
same,B,[4]; [10],0.46 µg/mL and 0.22 µg/mL and 0.32 µg/mL and 0.36 µg/mL and 0.21 µg/mL
same,Cmax,[4]; [10],59 ng/mL and 112 ng/mL and 197 ng/mL and 255 ng/mL and 123 ng/mL
same,F,[4]; [10],87.9% and 40.4% and 59.6% and 68.8%
same,MRT,[4]; [10],61.1 h and 62.7 h and 79.1 h
same,Vc,[4]; [10],13.88 L/kg and 10.21 L/kg and 14.95 L/kg and 10.65 L/kg and 24.50 L/kg
same,Vss,[4]; [10],360.9 L/kg and 428.1 L/kg and 303.6 L/kg and 1325 L/kg
same,k12,[4]; [10],6.16 h⁻¹ and 5.53 h⁻¹ and 21.55 h⁻¹ and 3.89 h⁻¹ and 5.43 h⁻¹
same,k21,[4]; [10],0.25 h⁻¹ and 0.13 h⁻¹ and 0.78 h⁻¹ and 0.14 h⁻¹ and 0.10 h⁻¹
same,ko,[4]; [10],129.9 µg/kg/h and 149.9 µg/kg/h and 199.1 µg/kg/h and 249.5 µg/kg/h and 174.9 µg/kg/h
same,"t1/2,β",[4]; [10],10.94 h and 30.61 h and 28.64 h and 30.99 h and 37.26 h
same,α,[4]; [10],8.54 h⁻¹ and 6.85 h⁻¹ and 23.02 h⁻¹ and 4.76 h⁻¹ and 6.74 h⁻¹
same,order of absorption,"[4]; injection oil vehicle, intramuscular",zero order
same,kinetic linearity with dose,[4]; two doses in the same dog,linear kinetic
same,duration of analgesic effect calculated for human body,human body,4 to 5 days
